Measured values: article PMC10138714, “Evaluation of Some Safety Parameters of Dual Histamine H3 and Sigma-2 Receptor Ligands with Anti-Obesity Potential” (International Journal of Molecular Sciences, 2023)

How the values were obtained:
σ1R = biological target: σ1R; parameters: method as in PMID 34908391; details: cited from earlier work; for σ1/σ2: ratio of Ki values
H3R = biological target: H3R; parameters: method as in PMID 34908391; details: cited from earlier work; for H3/σ1 / H3/σ2: ratio of Ki values
rats = assay: Heart rate and ECG intervals in rats; type: in vivo, male Wistar rats; details: 10 mg/kg i.p.
Method: (§1) Blood pressure measurement and ECG were performed on male Wistar rats weighing 200–220 g (six months old). Locomotor activity and chimney tests were performed on adult male Albino Swiss (CD-1) mice weighing 18–22 g ([…]). The animals were obtained from an accredited animal house at the Faculty of Pharmacy, Jagiellonian University Medical College, Krakow, Poland. The experimental groups consisted of 6–8 animals. The animals were housed in constant temperature (22–24 °C) and humidity (40–60%) facilities, exposed to 12:12 h light/dark cycles, and were maintained on a standard pellet diet with tap water available ad libitum. Rats and mice were housed in pairs or 8 animals per home cage, respectively.
In vivo electrocardiographic measurements were performed using an ASPEL ASCARD B5 apparatus, standard lead II, and a paper speed of 50 mm/s. The study was carried out after a single administration of the test compounds (10 mg/kg i.p.). […] The following parameters were then calculated and analyzed: duration of PQ, QT, QRS, RR intervals, and heart rate.

[1] = biological target: T1, human ERG potassium channel (Kv11.1) (Homo sapiens, UniProt Q12809); assay: Whole-cell automated patch clamp (QPatch16X), inhibition of hERG currents; type: cell-based; details: for IC50: CHO cells stably expressing human ERG, whole-cell, mean of three experiments, read-out: Mean IC50 ± SEM, inhibition of hERG currents; for Inhibition of hERG compared with verapamil: relative to reference compound verapamil
T1 construct: expressed in transfected cells
Method: Electrophysiology experiments were performed on a QPatch16X automatic patch clamp platform (Sophion Bioscience, Ballerup, Denmark). Chinese hamster ovary (CHO) cells stably expressing the human ERG potassium channel (Kv11.1) were cultured using standard procedures. On the day of the experiment, cells were collected from the culture flask using TrypLE Express solution (Life Technologies, Thermo Fisher Scientific, Carlsbad, California, United States) and resuspended in EX-CELL ACF CHO serum-free medium (Merck KGaA, Sigma-Aldrich, Darmstadt, Germany), supplemented with 25 mM HEPES, 100 U/mL penicillin/streptomycin, and 0.04 mg/mL soybean trypsin inhibitor (all components from Sigma Aldrich).
The cells were placed in the lidless microtube and located onboard the automated electrophysiology instrument, where they were automatically relocated to a built-in centrifuge.
Cells were transferred to pipetting wells of single-use 16-channel planar patch chip plates (QPlate 16X, Sophion Bioscience, Ballerup, Denmark) and gigaseals were formed upon application of a combined suction/voltage protocol in a standard protocol supplied by Sophion Bioscience for CHO cells. Once the whole-cell mode was obtained, the cells were kept in a holding potential of -90 mV between the programmed stimulation protocols.
Whole-cell potassium currents were measured in response to repeatedly executed voltage protocols constituted of the following steps: brief clamping to −50 mV (200 ms), subsequent depolarization to 20 mV for 4000 ms, and final repolarization to −50 mV when the outward tail current was measured for 4000 ms.
The average current peak values determined in the presence of particular concentrations of the compound tested were subjected to a sigmoidal dose–response curve fitting, where the bottom plateau parameter was constrained to 0. The IC50 values were then calculated from the obtained sigmoidal dose–response curves. Data were analyzed using QPatch Assay Software (v5.0, Sophion Bioscience, Ballerup, Denmark) and represent the mean of three experiments carried out on distinct cells.

mice [2] = assay: Locomotor activity in mice (activity cages, photobeam breaks); type: in vivo, male Albino Swiss (CD-1) mice; details: vs vehicle group
Method: as §1
Locomotor activity was individually recorded for each animal using specifically designed activity cages made of clear Perspex (40 cm × 40 cm × 31 cm, Activity Cage 7441, Ugo Basile, Italy). The cages were supplied with I.R. horizontal beam emitters connected to a counter that records the light-beam interruptions. The compounds suspensions were administered as i.p. injections 30 min before testing. Control animals received injections of vehicles. Each mouse was placed in a cage for a 30 min habituation period. After that time, the number of breaks in the photobeams was measured for 5 min, which is the same time as the observation period used in other tests.

σ2R = biological target: σ2R; parameters: method as in PMID 34908391; details: cited from earlier work
mice [3] = assay: Motor coordination in the chimney test; type: in vivo, male Albino Swiss (CD-1) mice; details: chimney test, 30 min after injection, n = 8
Method: as §1
The effect of tested compounds on motor impairment were quantified with the chimney test of Boissier et al. (1960). The mice were trained before the test, and only the animals able to get out of the chimney within 1 min were used at the experimental stage. The selected mice were placed in a 25 cm-long and 2.5 cm in diameter […] tube, which was reversed so that the mice could leave it only by climbing up backward until they reached the other end. The test was performed 30 min after injection (i.p.) of the examined compounds. Motor impairment was indicated by the inability of the animals to climb up backwards in the transparent tube within 60 s.

normotensive rats = assay: Blood pressure in anesthetized normotensive rats (carotid artery cannulation); type: in vivo, male Wistar rats; details: single i.p. 10 mg/kg b.w., 30–60 min after administration
Method: as §1
Rats were anesthetized with thiopental (70 mg/kg) via i.p. injection. The left carotid artery was cannulated with polyethylene tubing filled with a heparin solution in saline to facilitate pressure measurements using a PowerLab Apparatus (ADInstruments, Sydney, Australia). After a 20 min stabilization period, the test compounds were administered i.p. at a dose of 10 mg/kg b.w. in a constant volume of 1 mL/kg b.w. Blood pressure was recorded immediately before administration and 5, 10, 15, 20, 30, 40, 50, and 60 min after the administration of the test compound [47].

[4] = system: rats fed a palatable diet; assay: Plasma AlaT, AspaT, gGT and ALP activity after repeated administration in rats fed a palatable diet; type: in vivo; details: 10 mg/kg b.w. i.p. repeated; for Plasma AlaT activity: vs vehicle control fed palatable feed; for Plasma ALP activity: vs vehicle group with palatable feed
Method: Standard diet ( 8% fats, 67% carbohydrates, and 25% proteins) contained 100 g feed—280 kcal. Rats fed a palatable diet had access to a diet consisting of milk chocolate with nuts, cheese, salted peanuts, and 7% condensed milk and simultaneously to standard feed (Labofeed B, Morawski Manufacturer Feed, Kcynia, Poland) for 4 weeks. The feeding was not in any way forced, and rats decided themselves when, what, and how much to eat. A palatable diet contained 100 g of peanuts—612 kcal; 100 mL of condensed milk—131 kcal; 100 g of milk chocolate—529 kcal; and 100 g of cheese—325 kcal.
The study evaluating the activities of alanine aminotransferase (AlaT), aspartate aminotransferase (AspaT), gamma-glutamyl transpeptidases (gGT), and alkaline phosphatase (ALP) was carried out after completing the excessive eating model experiments described in our previous work. Compounds were administered for twenty-eight days at a dose of 10 mg/kg b.w./day. On the 31st day of the experiment, 20 min after i.p. administration of heparin (5000 units/rat) and thiopental (70 mg/kg b.w.), blood was collected from the left carotid artery and then centrifuged at 600× g (15 min, 4 °C) in order to obtain the plasma. To determine the activities of AlaT, AapaT, gGT, and ALP in the plasma samples, a standard enzymatic spectrophotometric test (Biomaxima S.A., Lublin, Poland) was used.

sigma-2 receptors = biological target: sigma-2 receptors; parameters: method as in earlier work; details: cited from earlier work

T1 sequence (Q12809 whole entry): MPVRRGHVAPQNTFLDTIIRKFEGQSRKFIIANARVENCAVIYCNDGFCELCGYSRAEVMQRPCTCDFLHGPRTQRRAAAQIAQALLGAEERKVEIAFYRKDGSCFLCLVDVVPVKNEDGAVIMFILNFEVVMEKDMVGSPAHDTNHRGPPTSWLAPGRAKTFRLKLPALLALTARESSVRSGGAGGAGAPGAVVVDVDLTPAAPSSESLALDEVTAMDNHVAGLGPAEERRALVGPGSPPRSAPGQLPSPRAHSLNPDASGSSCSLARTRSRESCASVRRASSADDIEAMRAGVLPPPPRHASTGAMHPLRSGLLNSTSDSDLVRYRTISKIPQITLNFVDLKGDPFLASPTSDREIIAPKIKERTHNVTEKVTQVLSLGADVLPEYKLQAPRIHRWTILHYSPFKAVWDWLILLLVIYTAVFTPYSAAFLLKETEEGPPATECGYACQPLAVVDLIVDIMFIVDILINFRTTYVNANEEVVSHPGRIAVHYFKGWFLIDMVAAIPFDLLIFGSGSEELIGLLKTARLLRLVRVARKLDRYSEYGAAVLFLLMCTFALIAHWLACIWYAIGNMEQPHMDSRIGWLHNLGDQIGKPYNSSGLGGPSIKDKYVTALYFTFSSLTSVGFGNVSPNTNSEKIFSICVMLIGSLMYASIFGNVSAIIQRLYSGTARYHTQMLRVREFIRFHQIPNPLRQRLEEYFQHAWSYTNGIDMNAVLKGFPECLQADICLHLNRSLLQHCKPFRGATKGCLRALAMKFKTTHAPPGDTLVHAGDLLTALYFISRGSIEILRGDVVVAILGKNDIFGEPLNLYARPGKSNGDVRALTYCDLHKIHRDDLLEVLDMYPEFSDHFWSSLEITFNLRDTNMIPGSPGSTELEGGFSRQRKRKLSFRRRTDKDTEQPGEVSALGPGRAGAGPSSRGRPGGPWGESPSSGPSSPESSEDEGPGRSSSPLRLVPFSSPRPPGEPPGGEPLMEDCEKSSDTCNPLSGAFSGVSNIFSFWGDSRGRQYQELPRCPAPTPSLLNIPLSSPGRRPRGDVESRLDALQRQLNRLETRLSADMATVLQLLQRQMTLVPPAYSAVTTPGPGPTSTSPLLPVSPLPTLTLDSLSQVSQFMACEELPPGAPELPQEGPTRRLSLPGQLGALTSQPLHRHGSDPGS

| SMILES | Ki (σ1R) [nM] | σ1/σ2 (σ1R) | Ki (H3R) [nM] | H3/σ1 (H3R) | H3/σ2 (H3R) | Heart rate (rats; time 0 min) [beats/min] | PQ (rats; time 0 min) [ms] | QRS (rats; time 0 min) [ms] | QT (rats; time 0 min) [ms] | Heart rate (rats; time 15 min) [beats/min] | PQ (rats; time 15 min) [ms] | QRS (rats; time 15 min) [ms] | QT (rats; time 15 min) [ms] | Heart rate (rats; time 30 min) [beats/min] | PQ (rats; time 30 min) [ms] | QRS (rats; time 30 min) [ms] | QT (rats; time 30 min) [ms] | Heart rate (rats; time 45 min) [beats/min] | PQ (rats; time 45 min) [ms] | QRS (rats; time 45 min) [ms] | also measured |
| --- | --- | --- | --- | --- | --- | --- | --- | --- | --- | --- | --- | --- | --- | --- | --- | --- | --- | --- | --- | --- | --- |
| CC(=O)c1ccc(OCCCCCCCCN2CCN(c3ccncc3)CC2)cc1 [KSK-73] | 408 | 6.84 | 40.5 | 0.1 | 0.68 | 370.0 ± 23.9 | 56.3 ± 2.2 | 22.7 ± 5.4 | 61.3 ± 2.2 | 375.5 ± 23.9 | 51.3 ± 2.2 | 22.7 ± 5.4 | 63.8 ± 4.1 | 377.1 ± 27.3 | 51.3 ± 2.2 | 22.7 ± 5.4 | 60.0 ± 7.1 | 395.8 ± 33.3 | 52.5 ± 2.5 | 20.0 ± 0.0 | QT (rats; time 45 min): 58.8 ± 2.2 ms; Heart rate (rats; time 60 min): 377.0 ± 26.4 beats/min; PQ (rats; time 60 min): 53.8 ± 2.2 ms; QRS (rats; time 60 min): 20.0 ± 0.0 ms; QT (rats; time 60 min): 63.8 ± 6.5 ms; IC50 [1]: 2070 ± 402 nM; Inhibition of hERG compared with verapamil [1]: four times weaker; Locomotor activity (mice [2]; single i.p. 30 mg/kg b.w.): significant decrease; Ki (σ2R): 59.7 nM; % of Mice Impaired (mice [3]; 10 mg/kg i.p.): 12.5%; % of Mice Impaired (mice [3]; 20 mg/kg i.p.): 0%; % of Mice Impaired (mice [3]; 30 mg/kg i.p.): 0%; Decrease of diastolic blood pressure (normotensive rats): 10–14 mmHg; Decrease of systolic blood pressure (normotensive rats): approx. 12 mmHg; Plasma gGT activity ([4]; vs palatable feed-fed control group): statistically lower gGT activity; Plasma AlaT activity [4]: lower; Plasma ALP activity [4]: lower plasma ALP activity |
| CCC(=O)c1ccc(OCCCCCCCCN2CCN(c3ccncc3)CC2)cc1 [KSK-74] | 274 | 4.16 | 38.9 | 0.14 | 0.59 | 381.8 ± 19.9 | 56.3 ± 4.1 | 20.0 ± 0.0 | 62.5 ± 4.3 | 356.3 ± 18.9 | 53.8 ± 4.1 | 20.0 ± 0.0 | 60.0 ± 5.0 | 355.3 ± 32.2 | 56.3 ± 2.2 | 20.0 ± 0.0 | 61.3 ± 6.5 | 364.6 ± 18.1 | 57.5 ± 2.5 | 20.0 ± 0.0 | QT (rats; time 45 min): 65.0 ± 6.1 ms; Heart rate (rats; time 60 min): 370.8 ± 23.9 beats/min; PQ (rats; time 60 min): 55.0 ± 5.0 ms; QRS (rats; time 60 min): 20.0 ± 0.0 ms; QT (rats; time 60 min): 62.5 ± 8.3 ms; IC50 [1]: 3400 ± 289 nM; Inhibition of hERG compared with verapamil [1]: almost seven times weaker; Locomotor activity (mice [2]; single i.p. 10 mg/kg b.w., 30 min before test): significantly increased; Locomotor activity (mice [2]; single i.p. 30 mg/kg b.w.): No significant changes; Ki (σ2R): 65.9 nM; % of Mice Impaired (mice [3]; 10 mg/kg i.p.): 0%; % of Mice Impaired (mice [3]; 20 mg/kg i.p.): 12.5%; % of Mice Impaired (mice [3]; 30 mg/kg i.p.): 12.5%; Decrease of diastolic blood pressure (normotensive rats): 10–13 mmHg; Decrease of systolic blood pressure (normotensive rats): approx. 12 mmHg; Plasma AlaT activity [4]: lower; Plasma ALP activity [4]: lower plasma ALP activity |
| Clc1ccc(CCCOCCCN2CCCCC2)cc1 [Pitolisant] | – | – | – | – | – | – | – | – | – | – | – | – | – | – | – | – | – | – | – | – | Ki (sigma-2 receptors): 6.5 nM |
